Values after ≈ are worked out from the molar mass of the structure shown.
Assays:
Candida parapsilosis = test: Antifungal activity against Candida parapsilosis by NCCLS M27-A method; assay type: functional; settings: Lodderomyces parapsilosis
Candida albicans = test: Antifungal activity against Candida albicans by NCCLS M27-A method; assay type: functional

Row | MIC (Candida parapsilosis) | MIC (Candida albicans) | Structure (SMILES)
1 | > 0.157 µM | > 0.157 µM | CC1=C2C3=C4[C@@](C)(C(=O)[C@@]2(O)OC1=O)[C@@H]1C[C@@H]1[C@@]4(O)C[C@@H]1[C@]32OC(=O)C3=C2C[C@H]2[C@](O)(COC(=O)/C=C(\C)COC(=O)CCC(=O)OC3)[C@H]3C[C@@H]3[C@]12C [CHLORAHOLOLIDE B]
2 | 0.068 µM (≈ 0.05 µg/mL) | 0.068 µM (≈ 0.05 µg/mL) | CC1=C2C3=C4[C@](C)([C@@H]5C[C@@H]5[C@@]4(O)C[C@@H]4[C@]35OC(=O)C3=C5C[C@H]5[C@](O)(COC(=O)/C=C(\C)COC(=O)CCC(=O)OC3)[C@H]3C[C@@H]3[C@]45C)[C@@H](O)[C@@]2(O)OC1=O [CHLORAMULTILIDE B]
3 | > 0.157 µM | > 0.157 µM | CC1=C2C3=C4[C@](C)([C@@H]5C[C@@H]5[C@@]4(O)C[C@@H]4[C@]35OC(=O)C3=C5C[C@H]5[C@](O)(COC(=O)/C(C)=C/COC(=O)CCC(=O)OC3)[C@H]3C[C@H]3[C@]45C)[C@@H](O)[C@@]2(O)OC1=O [CHLORAMULTILIDE C]
4 | > 0.157 µM | > 0.157 µM | C/C=C(\C)C(=O)OC[C@]1(O)[C@H]2C[C@H]2[C@]2(C)[C@@H]3C[C@@]4(O)C5=C(C6=C(C)C(=O)O[C@]6(O)[C@H](O)[C@@]5(C)[C@@H]5C[C@@H]54)[C@@]34OC(=O)C(CO)=C4C[C@@H]12 [CHLORAMULTILIDE D]

Reference: ChEMBL document CHEMBL1141432, “Mono- and Di-sesquiterpenoids from Chloranthus spicatus” (2007)
